# Laboratory results published in patent US6737383B1, “Herbicidal oxadiazolidines” (priority 1999, dated 2004).
# Assays:
# morningglory = assay: Test B pre/postemergence morningglory; format: in vivo, Ipomoea hederacea
# Method in brief: (§1)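 Herbicidal effect was estimated by eye on a ten-point control scale after plants spent twelve to sixteen days in a greenhouse following soil or foliar treatment. Foliar sprays targeted plants at one to four leaves; all doses were formulated in a non-phytotoxic solvent with surfactant.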
# duck salad = assay: Test B flood test duck salad; format: in vivo, Heteranthera limosa
# Method in brief: (§2)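 Each value is a visual injury score relative to controls, with 10 meaning complete control and 0 no effect. Evaluation took place twelve to sixteen days after the 2-leaf-stage plants were treated and kept in the greenhouse.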
# soybean = assay: Test B pre/postemergence soybean; format: in vivo, Glycine max
# Method in brief: as §1
# wild oat = assay: Test B pre/postemergence wild oat; format: in vivo, Avena fatua
# Method in brief: as §1
# purple nutsedge = assay: Test B pre/postemergence purple nutsedge; format: in vivo, Cyperus rotundus
# Method in brief: as §1
# wheat = assay: Test B pre/postemergence wheat; format: in vivo, Triticum aestivum
# Method in brief: as §1
# sugar beet = assay: Test B pre/postemergence sugar beet; format: in vivo, Beta vulgaris
# Method in brief: as §1
# giant foxtail = assay: Test B pre/postemergence giant foxtail; format: in vivo, Setaria faberii
# Method in brief: as §1
# corn = assay: Test B pre/postemergence corn; format: in vivo, Zea mays
# Method in brief: as §1
# rape = assay: Test B pre/postemergence rape; format: in vivo, Brassica napus
# Method in brief: as §1
# blackgrass = assay: Test B pre/postemergence blackgrass; format: in vivo, Alopecurus myosuroides
# Method in brief: as §1
# velvetleaf = assay: Test B pre/postemergence velvetleaf; format: in vivo, Abutilon theophrasti
# Method in brief: as §1
# cocklebur = assay: Test B pre/postemergence cocklebur; format: in vivo, Xanthium strumarium
# Method in brief: as §1
# smallflower flatsedge = assay: Test B flood test smallflower flatsedge; format: in vivo, Cyperus difformis
# Method in brief: as §2
# crabgrass = assay: Test B pre/postemergence crabgrass; format: in vivo, Digitaria sanguinalis
# Method in brief: as §1
# surinam grass = assay: Test B pre/postemergence surinam grass; format: in vivo, Brachiaria decumbens
# Method in brief: as §1
# [1] = Postemergence, Rate 62 g/ha, scale 0 to 10, 0 is no effect, 10 is complete control
# [2] = Postemergence, Rate 125 g/ha, scale of 0 to 10 where 0 is no effect and 10 is complete control
# [3] = Postemergence, Rate 250 g/ha, scale of 0 to 10, 0 is no effect, 10 is complete control
# [4] = Preemergence, Rate 62 g/ha, scale of 0 to 10 where 0 is no effect and 10 is complete control
# [5] = Preemergence, Rate 125 g/ha, scale of 0 to 10 where 0 is no effect and 10 is complete control
# [6] = Preemergence, Rate 250 g/ha, scale 0 to 10 (0 no effect, 10 complete control)
# [7] = Preemergence, Rate 500 g/ha, scale of 0 to 10 where 0 is no effect and 10 is complete control
# [8] = Rate 500 g/ha, Postemergence, scale 0 to 10, 0 is no effect, 10 is complete control
# [9] = Rate 62 g/ha, flood test species, Pre-emergence, visual evaluation after twelve to sixteen days
# [10] = Rate 125 g/ha, under heading Pre-emergence, flood test species, visual evaluation after twelve to sixteen days
# [11] = Rate 250 g/ha, Pre-emergence (flood test species), scale 0 to 10, 0 is no effect, 10 is complete control
# [12] = Rate 500 g/ha, Pre-emergence section of Table B, 0 to 10 scale (0 no effect, 10 complete control)
structure (smiles),measurement,setting,value
C=C(Cn1c(=O)on(C(=O)N(c2ccccc2)C(C)C)c1=O)C(C)C [Compound 649],"Plant response rating, Morningglory",morningglory; [1],4
same,Morningglory plant response rating,morningglory; [2],7
same,Morningglory plant response rating,morningglory; [3],7
same,Morningglory plant response rating,morningglory; [4],0
same,Morningglory plant response rating,morningglory; [5],0
same,"Plant response rating, Morningglory",morningglory; [6],0
same,"Plant response rating, Morningglory",morningglory; [7],0
same,Morningglory plant response rating,morningglory; [8],8
same,"Plant response rating, Ducksalad (0 to 10 scale, 0 is no effect, 10 is complete control)",duck salad; [9],0
same,"Ducksalad plant response rating (0 to 10 scale, 0 is no effect, 10 is complete control)",duck salad; [10],0
same,Ducksalad plant response rating,duck salad; [11],0
same,Ducksalad plant response rating,duck salad; [12],0
same,"Plant response rating, Soybean",soybean; [1],2
same,Soybean plant response rating,soybean; [2],2
same,Soybean plant response rating,soybean; [4],0
same,Soybean plant response rating,soybean; [5],0
same,"Plant response rating, Soybean",soybean; [6],0
same,"Plant response rating, Soybean",soybean; [7],0
same,Soybean plant response rating,soybean; [8],3
same,"Plant response rating, Wild oats",wild oat; [1],0
same,Wild oats plant response rating,wild oat; [2],0
same,Wild oats plant response rating,wild oat; [4],0
same,Wild oats plant response rating,wild oat; [5],0
same,"Plant response rating, Wild oats",wild oat; [6],0
same,"Plant response rating, Wild oats",wild oat; [7],0
same,Wild oats plant response rating,wild oat; [8],0
same,"Plant response rating, Nutsedge",purple nutsedge; [1],0
same,Nutsedge plant response rating,purple nutsedge; [2],0
same,Nutsedge plant response rating,purple nutsedge; [4],0
same,Nutsedge plant response rating,purple nutsedge; [5],0
same,"Plant response rating, Nutsedge",purple nutsedge; [6],0
same,"Plant response rating, Nutsedge",purple nutsedge; [7],0
same,Nutsedge plant response rating,purple nutsedge; [8],0
same,"Plant response rating, Wheat",wheat; [1],0
same,Wheat plant response rating,wheat; [2],0
same,Wheat plant response rating,wheat; [4],0
same,Wheat plant response rating,wheat; [5],0
same,"Plant response rating, Wheat",wheat; [6],0
same,"Plant response rating, Wheat",wheat; [7],0
same,Wheat plant response rating,wheat; [8],0
same,"Plant response rating, Sugarbeets",sugar beet; [1],0
same,Sugarbeets plant response rating,sugar beet; [2],0
same,Sugarbeets plant response rating,sugar beet; [5],0
same,"Plant response rating, Sugarbeets",sugar beet; [6],0
same,"Plant response rating, Sugarbeets",sugar beet; [7],0
same,Sugarbeets plant response rating,sugar beet; [8],0
same,"Plant response rating, Giant foxtail",giant foxtail; [1],0
same,Giant foxtail plant response rating,giant foxtail; [2],2
same,Giant foxtail plant response rating,giant foxtail; [3],2
same,Giant foxtail plant response rating,giant foxtail; [4],0
same,"Plant response rating, Giant foxtail",giant foxtail; [6],9
same,"Plant response rating, Giant foxtail",giant foxtail; [7],9
same,Giant foxtail plant response rating,giant foxtail; [8],7
same,"Plant response rating, Corn",corn; [1],0
same,Corn plant response rating,corn; [2],0
same,Corn plant response rating,corn; [3],0
same,Corn plant response rating,corn; [4],0
same,Corn plant response rating,corn; [5],0
same,"Plant response rating, Corn",corn; [6],0
same,"Plant response rating, Corn",corn; [7],0
same,Corn plant response rating,corn; [8],0
same,"Plant response rating, Rape",rape; [1],0
same,Rape plant response rating,rape; [2],0
same,Rape plant response rating,rape; [4],0
same,Rape plant response rating,rape; [5],0
same,"Plant response rating, Rape",rape; [6],0
same,"Plant response rating, Rape",rape; [7],0
same,Rape plant response rating,rape; [8],0
same,"Plant response rating, Blackgrass",blackgrass; [1],0
same,Blackgrass plant response rating,blackgrass; [2],0
same,Blackgrass plant response rating,blackgrass; [3],0
same,Blackgrass plant response rating,blackgrass; [4],0
same,Blackgrass plant response rating,blackgrass; [5],0
same,"Plant response rating, Blackgrass",blackgrass; [6],0
same,"Plant response rating, Blackgrass",blackgrass; [7],0
same,Blackgrass plant response rating,blackgrass; [8],0
same,"Plant response rating, Velvetleaf",velvetleaf; [1],0
same,Velvetleaf plant response rating,velvetleaf; [2],0
same,Velvetleaf plant response rating,velvetleaf; [4],0
same,Velvetleaf plant response rating,velvetleaf; [5],0
same,"Plant response rating, Velvetleaf",velvetleaf; [6],0
same,"Plant response rating, Velvetleaf",velvetleaf; [7],0
same,Velvetleaf plant response rating,velvetleaf; [8],0
same,"Plant response rating, Cocklebur",cocklebur; [1],0
same,Cocklebur plant response rating,cocklebur; [2],0
same,Cocklebur plant response rating,cocklebur; [3],0
same,Cocklebur plant response rating,cocklebur; [4],0
same,Cocklebur plant response rating,cocklebur; [5],0
same,"Plant response rating, Cocklebur",cocklebur; [6],0
same,"Plant response rating, Cocklebur",cocklebur; [7],0
same,Cocklebur plant response rating,cocklebur; [8],2
same,"Plant response rating, S. Flatsedge (0 to 10 scale, 0 is no effect, 10 is complete control)",smallflower flatsedge; [9],0
same,"S. Flatsedge plant response rating (0 to 10 scale, 0 is no effect, 10 is complete control)",smallflower flatsedge; [10],0
same,S. Flatsedge plant response rating,smallflower flatsedge; [11],0
same,S. Flatsedge plant response rating,smallflower flatsedge; [12],0
same,"Plant response rating, Crabgrass",crabgrass; [1],0
same,Crabgrass plant response rating,crabgrass; [2],2
same,Crabgrass plant response rating,crabgrass; [4],0
same,Crabgrass plant response rating,crabgrass; [5],1
same,"Plant response rating, Crabgrass",crabgrass; [6],5
same,"Plant response rating, Crabgrass",crabgrass; [7],9
same,"Plant response rating, B. signalgrass",surinam grass; [1],0
same,"Plant response rating, B. signalgrass",surinam grass; [2],0
same,B. signalgrass plant response rating,surinam grass; [3],0
same,B. signalgrass plant response rating,surinam grass; [4],0
same,B. signalgrass plant response rating,surinam grass; [5],0
same,"Plant response rating, B. signalgrass",surinam grass; [6],0
same,"Plant response rating, B. signalgrass",surinam grass; [7],0
same,B. signalgrass plant response rating,surinam grass; [8],0
